One assay has as its system human T cells (PBMCs). In words: Ex vivo T-cell activation in human PBMCs upon CD3/CD28 stimulation. Format: cell-based. The note with it: 10 μM Debio 1143 added to anti-CD3/CD28 stimulation, 24 hours, cytometric analysis. Here is the method:
FIG. 1: Ex vivo T-cell activation in human peripheral blood mononuclear cells (PBMCs) upon CD3/CD28 stimulation and Debio 1143 treatment. N=1 healthy donor; values represent means of triplicates±SD. To test the effect of Debio 1143 on activation of human T cells, PBMCs freshly isolated from healthy human donors were stimulated ex vivo with anti-CD3/CD28 antibodies for 24 in the presence of 10 μM Debio 1143, or control treatments without stimulation and Debio 1143 incubation.

A further assay relates to MBT-2 bladder cancer. The assay can be described thus: Subcutaneous MBT-2 mouse bladder cancer syngeneic model. The note with it: anti-PD-L1 5 mg/kg i.p. bi-weekly; Debio 1143 100 mg/kg p.o. QD1-5; alone or combined, 3 weeks. Format: in vivo. Here is the method:
FIG. 3: Anti-tumor activity of Debio 1143, anti-PD-L1 antibody, and their combination in the subcutaneous MBT-2 mouse bladder cancer syngeneic model.
The anti-tumor activity of an anti-PD-L1 antibody (5 mg/kg BIW i.p.; clone 10F.9G2, BioXcell) was tested either alone or in combination with Debio 1143 (100 mg/kg QD1-5 p.o.) in MBT-2 immunocompetent syngeneic mouse model of bladder cancer in C3H/HeNCrl mice over 3 weeks (see, for example, Shimazui et al., 2013. Int J Oncol. 42(2):543-8). Each mouse was inoculated subcutaneously at the right flank region with MBT-2 tumor cells (2×10^5) in 0.1 ml of PBS for tumor development. The treatments were started when the mean tumor size reached 101 mm^3 (n=8/group).

The record followed here is US20210198365A1, “COMBINATION PRODUCT FOR THE TREATMENT OF CANCER” (Debiopharm International S.A., priority 2017, published 2021).

Consider `CN[C@@H](C)C(=O)N[C@H]1CN(C(=O)CC(C)C)CC[C@H]2CC[C@@H](C(=O)NC(c3ccccc3)c3ccccc3)N2C1=O` [Debio 1143, (5S,8S,10aR)-N-benzhydryl-5-((S)-2-(methylamino)propanamido)-3-(3-methylbutanoyl)-6-oxodecahydropyrrolo[1,2-a][1,5]diazocine-8-carboxamide], for which the “T cell activation (percentage of IFNγ+ CD4+ and IFNγ+ CD8+ T-cells)” value with human T cells (PBMCs) was “significant increase in T cell activation”. In addition, the anti-tumor activity entry in the assay with MBT-2 bladder cancer is reported as “weak anti-tumor activity”.
